The record followed here is US7323457B2, “Substituted sulfonamides and ureas useful for inhibiting kinase activity” (Aventis Pharmaceuticals Inc., priority 2001, dated 2008).

The target of this test is Src Kinase (p60^C-Src) (Homo sapiens, UniProt P12931). The test is described as follows: Src kinase DELFIA time-resolved fluorometric assay. To be noted: Src kinase inhibitory activity; 100 μM ATP, poly(Glu, Tyr) 4:1 substrate, 15 min at room temp.; read-out: Activity (μMol, Delfia assay. IC50). It counts as biochemical. On the procedure:
The compounds 1-25 above were assayed for activity with respect to the Src protein tyrosine kinase by the fluorometric method described in Measurement of the Protein Tyrosine Kinase Activity of c-Src Using Time-Resolved Fluorometry of Europium Chelates, Braunwalder, A.F. et al., Analytical Biochemistry 238, 159-164 (1996), the disclosure of which is incorporated herein by reference, using the materials and procedures further specified below.
General Assay Method for Src-Kinase:
• Costar 384 Clear, non-treated, high-binding plates • Sigma poly(Glu, Tyr) 4:1, ave. MW 35,000 • Src Kinase (p60^C-Src) • Sigma ATP (1.5 mM Stock Soln. in H2O) • MES Buffer: 30 mM MES (pH 6.8) • 10 mM MgCl2 • MBI Buffer: (MES+0.4 mg/ml BSA+0.003% IGEPAL) • Wallac Eu-labelled anti-phosphotyrosine Antibody (CR04-100) • Coating Solution: • 22.5 mM Na2CO3 (pH 9.6) • 27.5 mM NaHCO3 • 0.9% NaCl • Antibody Dilution Buffer: (MES+3% BSA) • DELFIA® Wash Solution (TTBS): • 0.5 M NaCl • 20 mM Tris (pH7.4) • 0.15% Tween 20 • DELFIA Enhancement Solution Method:
The plates were coated with 0.1 mg/ml poly(Glu, Tyr) in Coating Solution, 35 μl/well. […]
The reaction was stopped by aspiration, and then washed 3 times with MES (100 μl/wash). […] 20 μl DELFIA enhancement solution was added and the plates were read on a Wallac Victor plate reader in time-resolved fluorescence mode using 340 nm excitation and 615 nm emission wavelengths.

As usually defined, the IC50 is the concentration that inhibits the measured activity by half. For the substance “[4-(Piperidin-4-yl)carbonyl-1-[[2-(4-phenylbutanoyl) amino]-4-[(1-aminocarbonyl-2-(naphth-2-yl))ethylamino]-carbonylaminophenyl]homopiperazine [Example 21]”, the IC50 is 22 µM.
